Laboratory results as given in patent US11530244B2, “Cyclic polypeptides for PCSK9 inhibition” (priority 2018, dated 2022).
Starred links: 1 amine or outer side, 2 acyl side, 3 side chain; linkers in the order of their positions; H or OH if unused. Positions of bridges follow the written chain, without caps; N, C: chain ends. Non-standard residues stand in square brackets, D forms with d. Residues, ends and D or L forms follow the SMILES beside them. Triazole bridges read from a SMILES are 1,4-linked. X38 = NC(=O)[C@H](CSCc1cccc(C[*:1])c1)NC(=O)[C@@H]1CCCC1C(=O)[C@H](Cc1ccc(OCC2CCCCC2)cc1)N[*:2]; Trp(5-F) = N[C@@H](Cc1c[nH]c2ccc(F)cc12)C(=O)O; mXylylene(5-F) = Fc1cc(C[*:1])cc(C[*:2])c1; Lys(N3) = [N-]=[N+]=NCCCC[C@H](N)C(=O)O; X4 = O=C(CCSCc1cccc(CSCCN[*:1])c1)[*:2]; Orn(N3) = [N-]=[N+]=NCCC[C@H](N)C(=O)O; dGly(cPent) = N[C@@H](C(=O)O)C1CCCC1; αMeP = C[C@@]1(C(=O)O)CCCN1; Hpra = C#CCC[C@H](N)C(=O)O; dPra = C#CC[C@@H](N)C(=O)O; Orn = NCCC[C@H](N)C(=O)O; Mpa = O=C(O)CCS

How the values were obtained:
[1] = target: PCSK9 (Homo sapiens (Human), UniProt Q8NBP7); test: PCSK9 Alexa FRET Standard assay (displacement of AlexaFluor647 tagged cyclic peptide Reagent A); assay type: binding; conditions: PCSK9 Alexa FRET Standard assay, 0.5 nM PCSK9, 20 nM AF cyclic peptide Reagent A; read-out: IC50
In short: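 TR-FRET displacement: 0.5 nM biotinylated PCSK9 with 1.25 nM Strep-Eu and 20 nM AlexaFluor-tagged cyclic peptide (final) in 50 mM HEPES pH 7.4, 0.15 M NaCl, 5 mM CaCl2, 0.01% BSA, 0.01% P20, ≥2 h at room temperature. IC50 from sigmoidal fit, converted to Ki via peptide KD; falling Eu counts flagged false positives.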

[2] = target: human PCSK9 / human LDLR EGFa domain interaction (Homo sapiens (Human), UniProt Q8NBP7); test: TR-FRET assay of inhibition of the PCSK9-LDLR protein-protein interaction; assay type: binding; conditions: TR-FRET, 20 nM human PCSK9, 20 nM human LDLR EGFa domain, 2 hours room temperature; read-out: IC50
In short: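 Inhibition of PCSK9 binding to the LDLR EGFa domain, each protein at 20 nM, detected by TR-FRET using streptavidin and anti-His donor/acceptor labels (5 nM). Two-hour room-temperature incubation in calcium-containing HEPES buffer.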

Chain of PCSK9 (Q8NBP7 153-692): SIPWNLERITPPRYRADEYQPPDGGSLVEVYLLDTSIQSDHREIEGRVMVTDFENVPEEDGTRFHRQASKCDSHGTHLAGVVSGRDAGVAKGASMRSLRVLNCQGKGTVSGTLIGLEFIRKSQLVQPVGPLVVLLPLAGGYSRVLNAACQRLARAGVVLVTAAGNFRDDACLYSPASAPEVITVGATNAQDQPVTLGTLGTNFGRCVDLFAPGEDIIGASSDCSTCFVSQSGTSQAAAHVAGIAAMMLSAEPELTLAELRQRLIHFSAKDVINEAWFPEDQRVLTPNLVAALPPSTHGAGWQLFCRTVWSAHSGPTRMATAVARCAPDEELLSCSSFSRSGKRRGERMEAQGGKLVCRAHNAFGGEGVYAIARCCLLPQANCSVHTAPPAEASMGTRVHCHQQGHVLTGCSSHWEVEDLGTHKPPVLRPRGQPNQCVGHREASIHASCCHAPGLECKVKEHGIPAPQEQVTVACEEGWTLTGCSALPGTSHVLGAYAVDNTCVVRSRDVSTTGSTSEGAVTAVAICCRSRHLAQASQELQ
Chain of human PCSK9 / human LDLR EGFa domain interaction (Q8NBP7 153-692): as above
Chain of human PCSK9 / human LDLR EGFa domain interaction (Q8NBP7 31-152 partner): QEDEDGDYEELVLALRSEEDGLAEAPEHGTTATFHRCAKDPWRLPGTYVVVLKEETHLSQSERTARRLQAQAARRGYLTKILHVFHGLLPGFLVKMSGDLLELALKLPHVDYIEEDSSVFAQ

Compound	IC50 [1]	IC50 [2]
CC(=O)N[C@H]1Cc2cn(nn2)-c2ccc(cc2)C[C@@H](C(N)=O)NC(=O)[C@]2(C)CCCN2C(=O)[C@H](Cc2ccc(O)cc2)NC(=O)[C@H](Cc2cnc[nH]2)NC(=O)[C@H](CC(=O)O)NC(=O)[C@H](Cc2c[nH]c3ccc(F)cc23)NC(=O)[C@H](Cc2c[nH]c3ccc(F)cc23)NC(=O)CNC(=O)[C@H](C)NC1=O [Compound 334]	21 to 50 µM	21 to 50 µM
CC(=O)N[C@H]1CCc2cn(nn2)CCCC[C@@H](C(N)=O)NC(=O)[C@]2(C)CCCN2C(=O)[C@H](Cc2ccc(O)cc2)NC(=O)[C@H](Cc2cnc[nH]2)NC(=O)[C@H](CC(=O)O)NC(=O)[C@H](Cc2c[nH]c3ccc(F)cc23)NC(=O)[C@H](Cc2c[nH]c3ccc(F)cc23)NC(=O)CNC(=O)[C@H](C)NC1=O [Compound 339] (Ac-[Hpra]AG[Trp(5-F)][Trp(5-F)]DHY[αMeP][Lys(N3)]-NH2; triazole 1-10)	1 to 12.1 µM	1 to 12.1 µM
CC(=O)N[C@H]1CCCc2cn(nn2)CCC[C@@H](C(N)=O)NC(=O)[C@]2(C)CCCN2C(=O)[C@H](Cc2ccc(O)cc2)NC(=O)[C@H](Cc2cnc[nH]2)NC(=O)[C@H](CC(=O)O)NC(=O)[C@H](Cc2c[nH]c3ccc(F)cc23)NC(=O)[C@H](Cc2c[nH]c3ccc(F)cc23)NC(=O)CNC(=O)[C@H](C)NC1=O [Compound 342]	1 to 12.1 µM	1 to 12.1 µM
COc1ccc(C[C@@H]2NC(=O)[C@H](Cc3c[nH]cn3)NC(=O)[C@H](CC(=O)O)NC(=O)[C@H](Cc3c[nH]c4ccc(F)cc34)NC(=O)[C@H](Cc3c[nH]c4ccc(F)cc34)NC(=O)[C@@H](C3CCCC3)NC(=O)[C@H](CCCCN)NC(=O)CCSCc3cccc(c3)CSCCNC(=O)[C@]3(C)CCCN3C2=O)cc1 [Compound 344] (cyclo(DHY(Me)[αMeP][X4]K[dGly(cPent)][Trp(5-F)][Trp(5-F)]))	21 to 50 µM	21 to 50 µM

Other lines, results leading:

IC50 [1]	IC50 [2]	Compound
1 to 12.1 µM	1 to 12.1 µM	CC(=O)N[C@H]1CCCn2cc(nn2)CCC[C@@H](C(N)=O)NC(=O)[C@]2(C)CCCN2C(=O)[C@H](Cc2ccc(O)cc2)NC(=O)[C@H](Cc2cnc[nH]2)NC(=O)[C@H](CC(=O)O)NC(=O)[C@H](Cc2c[nH]c3ccc(F)cc23)NC(=O)[C@H](Cc2c[nH]c3ccc(F)cc23)NC(=O)CNC(=O)[C@H](C)NC1=O [Compound 333]
1 to 12.1 µM	1 to 12.1 µM	CC(=O)N[C@@H]1Cc2cn(nn2)CCC[C@@H](C(N)=O)NC(=O)[C@]2(C)CCCN2C(=O)[C@H](Cc2ccc(O)cc2)NC(=O)[C@H](Cc2cnc[nH]2)NC(=O)[C@H](CC(=O)O)NC(=O)[C@H](Cc2c[nH]c3ccc(F)cc23)NC(=O)[C@H](Cc2c[nH]c3ccc(F)cc23)NC(=O)CNC1=O [Compound 335] (Ac-[dPra]G[Trp(5-F)][Trp(5-F)]DHY[αMeP][Orn(N3)]-NH2; triazole 1-9)
0.1 to 1 µM	0.0001 to 0.1 µM	CC(=O)N[C@@H]1Cc2cn(nn2)CCCC[C@@H](C(N)=O)NC(=O)[C@]2(C)CCCN2C(=O)[C@H](Cc2ccc(O)cc2)NC(=O)[C@H](Cc2cnc[nH]2)NC(=O)[C@H](CC(=O)O)NC(=O)[C@H](Cc2c[nH]c3ccc(F)cc23)NC(=O)[C@H](Cc2c[nH]c3ccc(F)cc23)NC(=O)CNC1=O [Compound 336] (Ac-[dPra]G[Trp(5-F)][Trp(5-F)]DHY[αMeP][Lys(N3)]-NH2; triazole 1-9)
1 to 12.1 µM	1 to 12.1 µM	COc1ccc(C[C@@H]2NC(=O)[C@H](Cc3cnc[nH]3)NC(=O)[C@H](CC(=O)O)NC(=O)[C@H](Cc3c[nH]c4ccc(F)cc34)NC(=O)[C@H](Cc3c[nH]c4ccc(F)cc34)NC(=O)[C@@H](C)NC(=O)[C@H](CCCCN)NC(=O)CCSCc3cc(F)cc(c3)CSC[C@@H](C(N)=O)NC(=O)[C@]3(C)CCCN3C2=O)cc1 [Compound 338] ([Mpa]K[dA][Trp(5-F)][Trp(5-F)]DHY(Me)[αMeP]C-NH2; linker 1-10 via mXylylene(5-F))
0.1 to 1 µM	0.0001 to 0.1 µM	NCCC[C@@H]1NC(=O)CCSCc2cccc(c2)CSC[C@@H](C(N)=O)NC(=O)[C@@H]2CCCC2C(=O)[C@H](Cc2ccc(OCC3CCCCC3)cc2)NC(=O)[C@H](Cc2cnc[nH]2)NC(=O)[C@H](CC(=O)O)NC(=O)[C@H](Cc2c[nH]c3ccc(F)cc23)NC(=O)[C@H](Cc2c[nH]c3ccc(F)cc23)NC(=O)CNC1=O (stereo partly drawn) [Compound 340] ([Mpa][Orn]G[Trp(5-F)][Trp(5-F)]DH; linker 1-C via X38)
